According to publication PMC5428017, “Targeting to the non-genomic activity of retinoic acid receptor-gamma by acacetin in hepatocellular carcinoma” (Scientific Reports, 2017):
Positions count from the first letter of the chain named.

Columns and labels:
[1] = biological target: T1, retinoic acid receptor-γ (RARγ) (Homo sapiens, UniProt P13631); test: competitive radioligand displacement of [3H]atRA from purified RARγ LBD; supported by GFP-RARγ fluorescence quenching in cells and reporter antagonism; format: binding
T1 construct: gene RARG; RARγ LBD
T1 sequence (P13631 185-419 limits assumed): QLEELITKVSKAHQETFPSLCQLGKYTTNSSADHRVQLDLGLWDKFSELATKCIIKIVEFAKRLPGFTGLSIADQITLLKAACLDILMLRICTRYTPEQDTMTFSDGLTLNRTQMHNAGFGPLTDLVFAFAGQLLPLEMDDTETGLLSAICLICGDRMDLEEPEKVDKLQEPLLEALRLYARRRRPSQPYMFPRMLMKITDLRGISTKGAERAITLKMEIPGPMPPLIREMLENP

[2] = biological target: T2, retinoic acid receptor-γ (RARγ) (Homo sapiens, UniProt P13631, R278A); test: Gal4-RARγ luciferase reporter in HEK293T cells, […] atRA; format: cell-based; settings: 0.1 µM
T2 construct: gene RARG; Gal4-RARγ/R278A
T2 sequence (P13631 185-419 R278A limits assumed): T1 sequence (P13631 185-419 limits assumed) with R94A

[3] = biological target: T3, RARβ (Homo sapiens, UniProt P10826); test: competitive radioligand displacement of [3H]atRA from RARβ LBD; format: binding
T3 construct: gene RARB; RARβ LBD
T3 sequence (P10826 183-417 limits assumed): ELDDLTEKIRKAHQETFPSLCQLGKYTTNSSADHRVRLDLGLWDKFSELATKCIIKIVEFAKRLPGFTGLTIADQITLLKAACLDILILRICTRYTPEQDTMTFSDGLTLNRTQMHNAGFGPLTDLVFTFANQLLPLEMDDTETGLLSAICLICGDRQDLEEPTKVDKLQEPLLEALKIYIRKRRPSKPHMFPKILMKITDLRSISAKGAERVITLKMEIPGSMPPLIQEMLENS

[4] = biological target: T4, RARα (Homo sapiens, UniProt P10276); test: competitive radioligand displacement of [3H]atRA from RARα LBD; format: binding
T4 construct: gene RARA; RARα LBD
T4 sequence (P10276 183-417 limits assumed): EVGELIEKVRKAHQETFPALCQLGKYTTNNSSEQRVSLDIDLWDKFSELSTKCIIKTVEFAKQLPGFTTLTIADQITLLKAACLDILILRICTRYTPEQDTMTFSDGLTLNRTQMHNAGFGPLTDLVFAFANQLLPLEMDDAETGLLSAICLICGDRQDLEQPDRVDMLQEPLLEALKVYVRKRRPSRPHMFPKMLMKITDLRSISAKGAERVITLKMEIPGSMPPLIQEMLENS

Row | SMILES | IC50 [1] [µM] | Gal4-RARγ luciferase reporter in HEK293T cells, 10^-7 M atRA [2] [fold activation] | competitive radioligand displacement of [3H]atRA from RARβ LBD [3] | competitive radioligand displacement of [3H]atRA from RARα LBD [4]
1 | COc1ccc(-c2cc(=O)c3c(O)cc(O)cc3o2)cc1 [acacetin, 5,7-dihydroxy-4′-methoxyflavone] | 12.8 | – | – | –
2 | CC1=C(/C=C/C(C)=C/C=C/C(C)=C/C(=O)O)C(C)(C)CCC1 [atRA] | – | 22 | both [^3H]atRA-bound complexes could be displaced by unlabeled atRA but not by acacetin | both [^3H]atRA-bound complexes could be displaced by unlabeled atRA but not by acacetin
